According to patent US20220291238A1, “Methods for Predicting Treatment Response in Ulcerative Colitis” (Janssen Biotech, Inc., priority 2021, published 2022):

Legend:
[1] = tested on: human colonoids; assay: Cytokine treatment of human colonoids, RNA-seq; assay type: cell-based; conditions: human colonoids, 24 hours
Protocol: All patients provided informed consent (NRES/IRAS id:15/LO/1998). Subsequent establishment of human colonoids was performed as previously described by Sato et al (48). The crypts were cultured in growth medium containing advanced Dulbecco's modified Eagle's medium/F12, penicillin/streptomycin (100 units/mL), 10 mM HEPES, 2 mM Glutamax, supplements N2 (1×) and B27 (1×), 50 ng/mL mouse epidermal growth factor (all from Life Technologies; Carlsbad, Calif.), 1 mM N-acetylcysteine (Sigma-Aldrich; St. Louis, Mo.), 50% v/v Wnt3a conditioned medium, 10% v/v R-spondin-1 conditioned medium, 100 ng/mL murine recombinant noggin protein (Peprotech; Rocky Hill, N.J.), 10 nM gastrin (Sigma-Aldrich), 500 nM A83-01 (Bio-techne; Minneapolis, Minn.), 10 μM SB202190 (Sigma-Aldrich) and 10 mM Nicotinamide (Sigma-Aldrich). 10 μM Y-27632 (Sigma-Aldrich) was added to the culture medium for the initial 3 days. Medium was changed every 2 days. […] During the last 24 hours in differentiation medium, human colonoids were treated with human recombinant IL22 (10 ng/mL), IL17A (50 ng/mL), TNFα (10 ng/mL), IFNγ (20 ng/mL), IL13 (10 ng/mL) and IL22 (10 ng/mL)/IL17A (50 ng/mL) combination.
(§1) RNA extraction: Colonoids and LPMC were treated in a similar fashion. Cells were lysed and RNA was extracted using the RNAeasy kit (Qiagen; Hilden, Germany). This step was optimized balancing the effectiveness of elimination of DNA quantified (Qubit dsDNA HS assay kit) versus the loss of quantity of RNA (Qubit RNA BR assay kit). Optimal DNAse I concentration was determined to be ×5 the standard concentration. 500 ng of cDNA was then created using Revertaid cDNA synthesis kit (ThermoFisher) and diluted to a concentration of 6.25 ng/μl. Harvested colonoids were put in Qiazol and then RNA was extracted with the RNAeasy kit (Qiagen) as per manufacturer's guidelines. cDNA was created using the Revertaid cDNA synthesis kit (ThermoFisher).
Library preparation and sequencing: A total amount of 3 μg RNA per sample was used as input material for the RNA sample preparations. Sequencing libraries were generated using NEBNextR Ultra™ RNA Library Prep Kit for IlluminaR (NEB, Ipswich, Mass.) following manufacturer's recommendations and index codes were added to attribute sequences to each sample. Briefly, mRNA was purified from total RNA using poly-T oligo-attached magnetic beads. Fragmentation was carried out using divalent cations under elevated temperature in NEBNext First Strand Synthesis Reaction Buffer (5×). First strand cDNA was synthesized using random hexamer primer and M-MuLV Reverse Transcriptase (RNase H-). Second strand cDNA synthesis was subsequently performed using DNA Polymerase I and RNase H. Remaining overhangs were converted into blunt ends via exonuclease/polymerase activities. After adenylation of 3′ ends of DNA fragments, NEBNext Adaptor with hairpin loop structure were ligated to prepare for hybridization. In order to select cDNA fragments of preferentially 150˜200 bp in length, the library fragments were purified with AMPure XP system (Beckman Coulter, Brea, Calif.). Then 3 μl USER Enzyme (NEB) was used with size-selected, adaptor-ligated cDNA at 37° C. for 15 minutes followed by 5 minutes at 95° C. before PCR. Then PCR was performed with Phusion High-Fidelity DNA polymerase, Universal PCR primers and Index (X) Primer. At last, PCR products were purified (AMPure XP system) and library quality was assessed on the Agilent Bioanalyzer 2100 system. The clustering of the index-coded samples was performed on a cBot Cluster Generation System using HiSeq PE Cluster Kit cBot-HS (Illumina; San Diego, Calif.) according to the manufacturer's instructions. After cluster generation, the paired-end libraries were sequenced on an Illumina HiSeq platform. […]

[2] = tested on: lamina propria mononuclear cells (LPMC); assay: IL23 stimulation of LPMC from UC patients, RNA-seq; assay type: cell-based, human
Protocol: Human LPMC isolation: Colonic mucosal biopsies were obtained from UC patients (n=5) with endoscopically active disease (Mayo endoscopic subscore ≥2). LPMCs were isolated using a non-digestion, ‘walk out’ method previously published (Di Marco Barros et al., 2016, Cell 167, 203-218). In brief, 9 mm×9 mm×1.5 mm Cellfoam matrices (Cytomatrix PTY Ltd; Victoria, Australia) were autoclaved and incubated in 100 μg/mL rat tail collagen I (BD Biosciences; San Jose, Calif.) in PBS for 30 min at 37° C. and washed twice in PBS. Biopsies were washed for 20 min in 5 mL wash medium (RPMI 1640 10% FCS, β-mercaptoethanol, penicillin (500U/ml), streptomycin ([…]), metronidazole (5 mg/ml), gentamicin ([…], Sigma-Aldrich) and amphotericin 12.5 mg/ml (Thermo Fisher Scientific; Waltham, Mass.)). One endoscopic biopsy was placed on top of each matrix, which was then inverted and pressure was applied to crush the biopsy into the matrix. The matrices were placed into a 24-well plate (1 per well) and covered with 2 mL RPMI 1640 (supplemented with 10% FCS, β-mercaptoethanol, penicillin (100 U/ml), streptomycin ([…]), metronidazole (1 mg/ml), gentamicin (20 mg/ml), amphotericin (2.5 mg/ml)) and IL-2 (100U/mL, Novartis Pharmaceutical UK; London, United Kingdom). Cells were harvested and residual biopsy and empty wells were washed with PBS 0.02 mM HEPES. The cell suspension was passed through a […] nylon cell strainer, centrifuged at 400 g for 5 minutes.
After LPMC isolation, a cell count was performed using a hemochromocytometer and 200,000 cells were placed in each well of a 96 well round bottomed plate until the supply was exhausted. Complete media either with or without IL23 (10 ng/ml Biolegend; San Diego, Calif.) was added to each well to a total volume of 200 μl and incubated at 37° C. at 5% CO2 for 4 hours. Then cells from wells treated in the same condition were combined in a 1.5 ml RNAse free Eppendorf. The Eppendorfs were centrifuged at 1200 g for 5 minutes, the supernatant was removed and 800 μl Qiazol (Qiagen, Germany) added and mechanically homogenized using a needle and syringe.
as §1
Library preparation and sequencing: A total amount of 3 μg RNA per sample was used as input material for the RNA sample preparations. Sequencing libraries were generated using NEBNextR Ultra™ RNA Library Prep Kit for IlluminaR (NEB, Ipswich, Mass.) following manufacturer's recommendations and index codes were added to attribute sequences to each sample. Briefly, mRNA was purified from total RNA using poly-T oligo-attached magnetic beads. Fragmentation was carried out using divalent cations under elevated temperature in NEBNext First Strand Synthesis Reaction Buffer (5×). First strand cDNA was synthesized using random hexamer primer and M-MuLV Reverse Transcriptase (RNase H-). Second strand cDNA synthesis was subsequently performed using DNA Polymerase I and RNase H. Remaining overhangs were converted into blunt ends via exonuclease/polymerase activities. After adenylation of 3′ ends of DNA fragments, NEBNext Adaptor with hairpin loop structure were ligated to prepare for hybridization. […]

Molecule | regulation of chemokine expression [1] | GZMB transcript fold change ([2]; IL23 10 ng/ml, 4 hours) | IFNG transcript fold change ([2]; IL23 10 ng/ml, 4 hours) | IL17A transcript fold change ([2]; IL23 10 ng/ml, 4 hours) | IL17F transcript fold change ([2]; IL23 10 ng/ml, 4 hours) | IL22 transcript fold change ([2]; IL23 10 ng/ml, 4 hours) | TNFRSF8 transcript fold change ([2]; IL23 10 ng/ml, 4 hours) | differentially expressed transcripts ([2]; filtered at P<0.01) [transcripts] | downregulated transcripts ([2]; filtered at P<0.01) | upregulated transcripts ([2]; filtered at P<0.01)
IL13: human recombinant IL13 (10 ng/mL) used on human colonoids | strongly upregulate both eosinophil-active chemokines CCL24 and CCL26 | – | – | – | – | – | – | – | – | –
IL23: recombinant IL23 (10 ng/ml, Biolegend) used to stimulate LPMC | – | 1.40 | 1.77 | 1.24 | 1.70 | 1.69 | 1.41 | 222 | 110 | 112
IFNγ: human recombinant IFNγ (20 ng/mL) used on human colonoids (protein, UniProt P01579 24-161, looked up) Interferon gamma: QDPYVKEAENLKKYFNAGHSDVADNGTLFLGILKNWKEESDRKIMQSQIVSFYFKLFKNFKDDQSIQKSVETIKEDMNVKFFNSNKKKRDDFEKLTNYSVTDLNVQRKAIHELIQVMAELSPAAKTGKRKRSQMLFRG | strongly upregulated CXCL9 and CXCL10 | – | – | – | – | – | – | – | – | –
